This is an account of results in ChEMBL document CHEMBL4342436, “Artemisia: a promising plant for the treatment of cancer” (Bioorg Med Chem, 2020).

In experiment [1] the test system is A549. Description: Cytotoxicity against human A549 cells by SRB assay. In kind it is functional, cell-based. In general terms: Sulforhodamine B stains cellular protein and so reports cell mass.
The subject of a further experiment is SK-MEL-2. Description: Cytotoxicity against human SK-MEL-2 cells by SRB assay. The experiment is classed as functional, cell-based.
Another experiment has as its system SK-OV-3. Description: Cytotoxicity against human SKOV3 cells by SRB assay. The experiment is classed as functional, cell-based.
The next experiment deals with XF498. Description: Cytotoxicity against human XF498 cells by SRB assay. The experiment is classed as functional, cell-based.
A further experiment concerns HCT-15. Description: Cytotoxicity against human HCT15 cells by SRB assay. In kind it is functional, cell-based.
The next experiment deals with SH-SY5Y. Description: Cytotoxicity against human SH-SY5Y cells after 72 hrs by MTT assay. In kind it is functional, cell-based. Background: Tetrazolium assays rely on reduction of a dye to a coloured formazan, in cell work by metabolically active cells.
Experiment [2] in a line: Cytotoxicity against mouse S17 cells after 72 hrs by MTT assay. The experiment is classed as functional, cell-based. The settings on record: S17, 72 h.
The subject of another experiment is HepG2. Description: Cytotoxicity against human HepG2 cells after 72 hrs by MTT assay. The settings on record: HepG2, 72 h. The experiment is classed as functional, cell-based.
The nature of experiment [3]: Antioxidant activity assessed as ONOO scavenging activity. In kind it is functional.
Another experiment deals with MCF7. Description: Cytotoxicity against human MCF7 cells assessed as reduction in cell viability incubated for 48 hrs by MTT assay. In kind it is functional, cell-based. The settings on record: MCF7, 48 h.
The subject of another experiment is HeLa. Description: Cytotoxicity against human HeLa cells assessed as reduction in cell viability incubated for 48 hrs by MTT assay. In kind it is functional, cell-based.
Experiment [4] is described as follows: Cytotoxicity against human YD-10B cells assessed as reduction in cell viability after 48 hr by MTT asssay. In kind it is functional, cell-based.
The subject of a further experiment is HL-60. Description: Antiproliferative activity against human HL60 cells assessed as reduction in cell viability after 3 days by XTT assay. Conditions: HL-60, 72 h. The experiment is classed as functional, cell-based.
For experiment [5], the system named is A549. Description: Cytotoxicity against human A549 cells by MTT assay. In kind it is functional, cell-based.
In another experiment the test system is Bel-7402. Description: Cytotoxicity against human Bel7402 cells by MTT assay. The experiment is classed as functional, cell-based.

≈ marks a conversion by molar mass, not a printed value.

For the compound `CC1=CC(=O)C2=C(C)CC[C@@H]3[C@H](OC(=O)[C@H]3C)[C@@H]12` [DESACETOXYMATRICARIN], the half-inhibitory concentration (IC50) with A549 [1], in the experiment on SK-MEL-2, in the experiment on SK-OV-3, with XF498 and in the experiment with HCT-15 was 0.4 to 26.8 µg/mL (≈ 1.62 to 109 µM) in each case.

In the case of `COc1ccc(-c2oc3cc(OC)c(OC)c(O)c3c(=O)c2OC)cc1OC` [ARTEMETIN], the IC50 (with SH-SY5Y; in experiment [2]; in the experiment on HepG2) was 229 to 233 µM each time.

Regarding `O=C(/C=C/c1ccc(O)c(O)c1)O[C@@H]1C[C@](O)(C(=O)O)C[C@@H](O)[C@H]1O` [CHLOROGENIC ACID], the IC50 in [3] stood at 0.52 µM.

For `COc1cc(O)c2c(=O)c(OC)c(-c3ccc(O)cc3)oc2c1` [KUMATAKENIN], the IC50 was 10.3 to 91.9 µM in the experiment with MCF7 and 8.1 to 63.2 µM in the experiment on HeLa.

On to `COc1cc2ccc(=O)oc2cc1O` [SCOPOLETIN], for which the IC50 in experiment [3] turned out to be 1.03 µM.

Regarding `COc1ccc(-c2cc(=O)c3c(O)cc(O)cc3o2)cc1` [ACACETIN], the IC50 in the experiment on A549 [1], with SK-MEL-2, with SK-OV-3, with XF498 and in the experiment on HCT-15 was 0.4 to 26.8 µg/mL (≈ 1.41 to 94.3 µM) throughout.

`c1cc2c(cc1[C@H]1OC[C@H]3[C@@H]1CO[C@@H]3c1ccc3c(c1)OCO3)OCO2` [SESAMIN]: the half-maximal inhibitory concentration (IC50) (in the experiment with SH-SY5Y; in [2]; in the experiment on HepG2) was 229 to 233 µM in each case.

Regarding `COc1ccc(-c2cc(=O)c3c(O)c(OC)c(OC)cc3o2)cc1O` [EUPATORIN], the IC50 lay in the range of 10.3 to 91.9 µM with MCF7 and 8.1 to 63.2 µM with HeLa.

For `COc1cc(-c2oc3cc(O)cc(O)c3c(=O)c2OC)cc(O)c1OC`, the results for the IC50 in the experiment on MCF7 and in the experiment with HeLa were 10.3 to 91.9 µM and 8.1 to 63.2 µM, respectively.

Turning to `COc1cc(-c2oc3cc(O)cc(O)c3c(=O)c2O)ccc1O` [ISORHAMNETIN], the IC50 was 10.3 to 91.9 µM in the experiment with MCF7 and 8.1 to 63.2 µM with HeLa.

On to `COc1cc(O)c2c(=O)cc(-c3ccc(O)cc3)oc2c1` [GENKWANIN], for which the IC50 was in the range of 0.4 to 26.8 µg/mL (≈ 1.41 to 94.3 µM) in the experiment with A549 [1]; 10.3 to 91.9 µM with MCF7; 0.4 to 26.8 µg/mL (≈ 1.41 to 94.3 µM) with SK-MEL-2; 8.1 to 63.2 µM in the experiment on HeLa; 0.4 to 26.8 µg/mL (≈ 1.41 to 94.3 µM) in the experiment on SK-OV-3; 0.4 to 26.8 µg/mL (≈ 1.41 to 94.3 µM) in the experiment with XF498. Further, the figures for the 50% inhibitory concentration (IC50) (in experiment [3]; in the experiment with HCT-15) were 1.01 µM and 0.4 to 26.8 µg/mL (≈ 1.41 to 94.3 µM), respectively.

Take `C[C@H]1[C@@H](CCNC(=O)CC[C@H](NC(=O)CC[C@H]2O[C@@H]3O[C@@]4(C)CC[C@H]5[C@H](C)CC[C@@H]([C@H]2C)[C@@]35OO4)C(=O)NCC[C@H]2O[C@@H]3O[C@@]4(C)CC[C@H]5[C@H](C)CC[C@@H]([C@H]2C)[C@@]35OO4)O[C@@H]2O[C@@]3(C)CC[C@H]4[C@H](C)CC[C@@H]1[C@@]24OO3`: the IC50 in experiment [4] is 6 µM.

Take `CC#CC#CCc1ccccc1`: the IC50 in the experiment on HL-60 was 1.1 to 40.7 µg/mL (≈ 7.13 to 264 µM).

In the case of `COc1ccc(-c2cc(=O)c3c(O)c(OC)c(OC)cc3o2)cc1OC`, the IC50 lay in the range of 10.3 to 91.9 µM in the experiment with MCF7 and 8.1 to 63.2 µM in the experiment on HeLa.

For the compound `C=C1C(=O)O[C@H]2[C@H]1[C@@H](OC(C)=O)CC(=C)[C@]1(O)C[C@H](Cl)[C@@](C)(O)[C@H]21`, the half-inhibitory concentration (IC50) in the experiment with A549 [5] and with Bel-7402 was 3.3 to 6 µM in each case.

A word on the IC50: it is the concentration needed to halve the response being measured.
